Results taken from US11420958B2, “Aryl and heteroaryl substituted indole compounds” (BRISTOL-MYERS SQUIBB COMPANY, priority 2017, dated 2022).

Columns and labels:
Type in all cases: cell-based
human TLR9 = human TLR9 (Homo sapiens (Human), UniProt Q9NR96); experiment: TLR9 inhibition reporter assay (HEK-Blue, SEAP); conditions: HEK-Blue cells overexpressing human TLR9, ODN2006 5 nM stimulation
Protocol: (§1) TLR7/8/9 Inhibition Reporter Assays
(§2) HEK-Blue™-cells (Invivogen) overexpressing human TLR7, TLR8 or TLR9 receptors were used for screening inhibitors of these receptors using an inducible SEAP (secreted embryonic alkaline phosphatase) reporter gene under the control of the IFN-β minimal promoter fused to five NF-κc Band AP-1-binding sites. Briefly, cells are seeded into Greiner 384 well plates (15000 cells per well for TLR7, 20,000 for TLR8 and 25,000 for TLR9) and then treated with test compounds in DMSO to yield a final dose response concentration range of 0.05 nM-50 μM. After a 30 minute compound pre-treatment at room temperature, the cells are then stimulated with a TLR7 ligand (gardiquimod at a final concentration of 7.5 μM), TLR8 ligand (R848 at a final concentration of 15.9 μM) or TLR9 ligand (ODN2006 at final concentration of 5 nM) to activate NF-κB and AP-1 which induce the production of SEAP. After a 22 hour incubation at 37° C., 5% CO2, SEAP levels are determined with the addition of HEK-Bue™ Detection reagent (Invivogen), a cell culture medium that allows for detection of SEAP, according to manufacturer's specifications. The percent inhibition is determined as the % reduction in the HEK-Blue signal present in wells treated with agonist plus DMSO alone compared to wells treated with a known inhibitor.

human TLR8 = human TLR8 (Homo sapiens (Human), UniProt Q9NR97); experiment: TLR8 inhibition reporter assay (HEK-Blue, SEAP); conditions: HEK-Blue cells overexpressing human TLR8, R848 15.9 μM stimulation
Protocol: as §1, §2

human TLR7 = human TLR7 (Homo sapiens (Human), UniProt Q9NYK1); experiment: TLR7 inhibition reporter assay (HEK-Blue, SEAP); conditions: HEK-Blue cells overexpressing human TLR7, gardiquimod 7.5 μM stimulation
Protocol: as §1, §2

Chain of human TLR8 (Q9NR97 27-1041): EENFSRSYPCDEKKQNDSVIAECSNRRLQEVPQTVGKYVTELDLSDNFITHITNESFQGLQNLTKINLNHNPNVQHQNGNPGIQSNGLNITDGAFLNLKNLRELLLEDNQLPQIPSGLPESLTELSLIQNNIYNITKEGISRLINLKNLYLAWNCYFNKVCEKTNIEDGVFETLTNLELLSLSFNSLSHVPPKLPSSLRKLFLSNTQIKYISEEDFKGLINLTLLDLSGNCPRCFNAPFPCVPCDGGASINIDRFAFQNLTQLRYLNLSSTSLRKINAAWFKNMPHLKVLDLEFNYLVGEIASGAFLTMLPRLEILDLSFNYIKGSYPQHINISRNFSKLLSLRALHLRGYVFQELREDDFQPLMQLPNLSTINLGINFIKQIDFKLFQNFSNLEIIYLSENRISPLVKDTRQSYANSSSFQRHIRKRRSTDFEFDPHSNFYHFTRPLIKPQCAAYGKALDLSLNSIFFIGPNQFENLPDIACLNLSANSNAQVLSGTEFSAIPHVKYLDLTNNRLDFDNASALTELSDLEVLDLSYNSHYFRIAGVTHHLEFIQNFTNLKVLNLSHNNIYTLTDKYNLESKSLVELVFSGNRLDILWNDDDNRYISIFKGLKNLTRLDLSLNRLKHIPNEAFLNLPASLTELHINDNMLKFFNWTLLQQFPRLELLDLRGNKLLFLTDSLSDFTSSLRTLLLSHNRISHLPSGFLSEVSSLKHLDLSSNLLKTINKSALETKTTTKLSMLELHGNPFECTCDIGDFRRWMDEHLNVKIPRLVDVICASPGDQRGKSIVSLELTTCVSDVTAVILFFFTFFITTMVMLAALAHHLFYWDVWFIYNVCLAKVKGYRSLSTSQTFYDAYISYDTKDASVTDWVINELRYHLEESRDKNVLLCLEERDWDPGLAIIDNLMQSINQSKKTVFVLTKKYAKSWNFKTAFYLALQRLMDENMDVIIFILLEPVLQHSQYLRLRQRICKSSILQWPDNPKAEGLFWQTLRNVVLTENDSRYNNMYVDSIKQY
Chain of human TLR9 (Q9NR96 26-1032): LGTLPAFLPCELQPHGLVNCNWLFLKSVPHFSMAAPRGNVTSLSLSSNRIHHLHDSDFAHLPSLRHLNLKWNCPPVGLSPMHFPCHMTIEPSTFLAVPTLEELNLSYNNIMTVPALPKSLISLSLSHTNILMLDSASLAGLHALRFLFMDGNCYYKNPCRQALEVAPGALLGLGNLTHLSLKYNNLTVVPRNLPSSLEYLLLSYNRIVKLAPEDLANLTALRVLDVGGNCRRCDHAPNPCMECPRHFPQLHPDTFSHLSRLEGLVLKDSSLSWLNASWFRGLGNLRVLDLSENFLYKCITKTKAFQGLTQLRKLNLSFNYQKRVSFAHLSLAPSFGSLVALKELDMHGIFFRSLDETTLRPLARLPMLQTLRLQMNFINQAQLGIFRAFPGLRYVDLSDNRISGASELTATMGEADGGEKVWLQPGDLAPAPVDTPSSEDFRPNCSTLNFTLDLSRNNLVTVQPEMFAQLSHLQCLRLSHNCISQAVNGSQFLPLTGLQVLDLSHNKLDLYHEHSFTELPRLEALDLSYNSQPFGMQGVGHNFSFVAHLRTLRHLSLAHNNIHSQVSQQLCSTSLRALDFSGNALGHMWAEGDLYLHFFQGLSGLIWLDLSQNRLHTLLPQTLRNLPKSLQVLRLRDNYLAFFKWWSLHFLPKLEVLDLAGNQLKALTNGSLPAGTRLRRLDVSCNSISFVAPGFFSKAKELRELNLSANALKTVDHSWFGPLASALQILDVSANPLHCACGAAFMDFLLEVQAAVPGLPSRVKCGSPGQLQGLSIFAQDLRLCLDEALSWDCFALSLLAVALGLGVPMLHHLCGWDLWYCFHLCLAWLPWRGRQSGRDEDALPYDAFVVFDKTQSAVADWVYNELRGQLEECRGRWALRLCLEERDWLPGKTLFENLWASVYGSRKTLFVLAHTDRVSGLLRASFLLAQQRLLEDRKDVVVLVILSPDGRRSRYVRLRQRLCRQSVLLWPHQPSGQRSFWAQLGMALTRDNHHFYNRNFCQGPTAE
Chain of human TLR7 (Q9NYK1 27-1049): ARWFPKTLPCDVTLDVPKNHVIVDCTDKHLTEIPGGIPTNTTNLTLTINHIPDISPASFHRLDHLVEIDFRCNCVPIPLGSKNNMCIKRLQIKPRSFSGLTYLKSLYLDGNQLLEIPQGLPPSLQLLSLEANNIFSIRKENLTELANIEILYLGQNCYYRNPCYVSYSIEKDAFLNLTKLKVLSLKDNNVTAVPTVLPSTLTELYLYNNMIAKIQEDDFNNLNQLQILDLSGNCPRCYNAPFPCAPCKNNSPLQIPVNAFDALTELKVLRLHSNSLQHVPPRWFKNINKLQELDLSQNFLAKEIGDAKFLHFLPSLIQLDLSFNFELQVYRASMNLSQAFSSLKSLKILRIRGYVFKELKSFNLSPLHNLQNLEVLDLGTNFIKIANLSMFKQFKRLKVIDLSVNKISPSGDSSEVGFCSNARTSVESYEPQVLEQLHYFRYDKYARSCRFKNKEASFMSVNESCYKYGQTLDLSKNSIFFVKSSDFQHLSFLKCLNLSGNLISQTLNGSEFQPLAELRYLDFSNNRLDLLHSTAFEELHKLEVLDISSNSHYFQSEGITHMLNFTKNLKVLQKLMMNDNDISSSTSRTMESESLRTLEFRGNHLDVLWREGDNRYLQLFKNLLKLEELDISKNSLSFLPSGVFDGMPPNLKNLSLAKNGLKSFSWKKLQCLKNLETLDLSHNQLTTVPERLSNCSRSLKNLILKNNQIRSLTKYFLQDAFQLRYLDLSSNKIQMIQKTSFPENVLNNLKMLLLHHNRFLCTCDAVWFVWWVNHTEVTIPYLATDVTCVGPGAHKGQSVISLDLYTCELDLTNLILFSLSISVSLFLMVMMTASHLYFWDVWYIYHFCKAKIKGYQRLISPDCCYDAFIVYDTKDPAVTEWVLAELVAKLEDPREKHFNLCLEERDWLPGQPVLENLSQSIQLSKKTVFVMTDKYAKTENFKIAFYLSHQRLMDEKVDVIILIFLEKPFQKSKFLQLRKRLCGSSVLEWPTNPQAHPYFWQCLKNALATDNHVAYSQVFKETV

Structure (SMILES) | IC50 (human TLR9) | IC50 (human TLR8) | IC50 (human TLR7)
COc1ccc(-c2[nH]c3ccc(-c4ccnc(C(=O)NC5CCN(C(C)C)CC5)c4)cc3c2C(C)C)cc1OC [Example 11, 4-(2-(3,4-dimethoxyphenyl)-3-isopropyl-1H-indol-5-yl)-N-(1-isopropylpiperidin-4-yl)picolinamide] | 665 nM | 18 nM | 22 nM
COc1ccc(-c2[nH]c3ccc(-c4ccnc(C(=O)NC5CCC(N)CC5)c4)cc3c2C(C)C)cc1OC (stereo not drawn) [Example 12, N-(4-aminocyclohexyl)-4-(2-(3,4-dimethoxyphenyl)-3-isopropyl-1H-indol-5-yl)picolinamide] | 2160 nM | 37 nM | 69 nM
COc1ccc(-c2[nH]c3ccc(-c4ccnc(C(=O)N[C@H]5CC[C@H](C(C)(C)O)CC5)c4)cc3c2C(C)C)cc1OC [Example 13, 4-(2-(3,4-dimethoxyphenyl)-3-isopropyl-1H-indol-5-yl)-N-((1r,4r)-4-(2-hydroxypropan-2-yl)cyclohexyl)picolinamide] | > 50000 nM | 1010 nM | 1240 nM
COc1ccc(-c2[nH]c3ccc(-c4ccnc(C(=O)N5CCNCC5)c4)cc3c2C(C)C)cc1OC [Example 14, (4-(2-(3,4-dimethoxyphenyl)-3-isopropyl-1H-indol-5-yl)pyridin-2-yl)(piperazin-1-yl)methanone] | > 50000 nM | 1040 nM | 1070 nM
Cc1cc(-c2[nH]c3ccc(-c4cccc(C(=O)N5CC6CNCC6C5)c4)cc3c2C(C)C)ccn1 (stereo not drawn) [Example 15, (hexahydropyrrolo[3,4-c]pyrrol-2(1H)-yl)(3-(3-isopropyl-2-(2-methylpyridin-4-yl)-1H-indol-5-yl)phenyl)methanone] | 738 nM | 6.8 nM | 27 nM
Cc1cc(-c2[nH]c3ccc(-c4cccc(C(=O)NC5CCN(C(C)C)CC5)c4)cc3c2C(C)C)ccn1 [Example 16, 3-(3-isopropyl-2-(2-methylpyridin-4-yl)-1H-indol-5-yl)-N-(1-isopropylpiperidin-4-yl)benzamide] | 14000 nM | 39 nM | 149 nM
COc1ccc(-c2[nH]c3ccc(-c4nnc(C5CCN(CC(=O)N(C)C)CC5)o4)cc3c2C(C)C)cc1OC [Example 17, 2-(4-(5-(2-(3,4-dimethoxyphenyl)-3-isopropyl-1H-indol-5-yl)-1,3,4-oxadiazol-2-yl)piperidin-1-yl)-N,N-dimethylacetamide] | 6440 nM | 17 nM | 108 nM
CNCC(=O)N1CCC(c2nnc(-c3ccc4[nH]c(-c5ccc(OC)c(OC)c5)c(C(C)C)c4c3)o2)CC1 [Example 18, 1-(4-(5-(2-(3,4-dimethoxyphenyl)-3-isopropyl-1H-indol-5-yl)-1,3,4-oxadiazol-2-yl)piperidin-1-yl)-2-(methylamino)ethan-1-one] | 625 nM | 9.5 nM | 42 nM
COc1ccc(-c2[nH]c3ccc(-c4nnc(C5CCN(C(=O)OC(C)(C)C)CC5)o4)cc3c2C(C)C)cc1OC [Example 19, tert-butyl 4-(5-(2-(3,4-dimethoxyphenyl)-3-isopropyl-1H-indol-5-yl)-1,3,4-oxadiazol-2-yl)piperidine-1-carboxylate] | > 50000 nM | 484 nM | 2510 nM
COc1ccc(-c2[nH]c3ccc(-c4nnc(C5CCN(C)CC5)o4)cc3c2C(C)C)cc1OC [Example 20, 2-(2-(3,4-dimethoxyphenyl)-3-isopropyl-1H-indol-5-yl)-5-(1-methylpiperidin-4-yl)-1,3,4-oxadiazole] | 821 nM | 4.8 nM | 31 nM
COc1ccc(-c2[nH]c3ccc(-c4nnc(C5CCN(C6CCN(C)CC6)CC5)o4)cc3c2C(C)C)cc1OC [Example 21, 2-(2-(3,4-dimethoxyphenyl)-3-isopropyl-1H-indol-5-yl)-5-(1′-methyl-[1,4′-bipiperidin]-4-yl)-1,3,4-oxadiazole] | 626 nM | 20 nM | 60 nM
COc1ccc(-c2[nH]c3ccc(-c4nnc(C5CCN(C6CCN(C(C)C)CC6)CC5)o4)cc3c2C(C)C)cc1OC [Example 22, 2-(2-(3,4-dimethoxyphenyl)-3-isopropyl-1H-indol-5-yl)-5-(1′-isopropyl-[1,4′-bipiperidin]-4-yl)-1,3,4-oxadiazole] | 266 nM | 11 nM | 36 nM
CNC(=O)CN1CCC(c2nnc(-c3ccc4[nH]c(-c5ccc(OC)c(OC)c5)c(C(C)C)c4c3)o2)CC1 [Example 23, 2-(4-(5-(2-(3,4-dimethoxyphenyl)-3-isopropyl-1H-indol-5-yl)-1,3,4-oxadiazol-2-yl)piperidin-1-yl)-N-methylacetamide] | 6100 nM | 43 nM | 207 nM
CNCCN1CCC(c2nnc(-c3ccc4[nH]c(-c5ccc(OC)c(OC)c5)c(C(C)C)c4c3)o2)CC1 [Example 24, 2-(4-(5-(2-(3,4-dimethoxyphenyl)-3-isopropyl-1H-indol-5-yl)-1,3,4-oxadiazol-2-yl)piperidin-1-yl)-N-methylethan-1-amine] | 179 nM | 3.7 nM | 56 nM
COc1ccc(-c2[nH]c3ccc(-c4cccc(C(=O)NCCC5CCCN5C)c4)cc3c2CC(F)(F)F)cc1OC (stereo not drawn) [Example 25, 3-(2-(3,4-dimethoxyphenyl)-3-(2,2,2-trifluoroethyl)-1H-indol-5-yl)-N-(2-(1-methylpyrrolidin-2-yl)ethyl)benzamide] | 1380 nM | 88 nM | 190 nM
COc1ccc(-c2[nH]c3ccc(-c4cccc(C(=O)NCCNC(C)=O)c4)cc3c2CC(F)(F)F)cc1OC [Example 26, N-(2-acetamidoethyl)-3-(2-(3,4-dimethoxyphenyl)-3-(2,2,2-trifluoroethyl)-1H-indol-5-yl)benzamide] | 32900 nM | 73 nM | 1000 nM
COc1ccc(-c2[nH]c3ccc(-c4cccc(C(=O)NCC#N)c4)cc3c2CC(F)(F)F)cc1OC [Example 27, N-(cyanomethyl)-3-(2-(3,4-dimethoxyphenyl)-3-(2,2,2-trifluoroethyl)-1H-indol-5-yl)benzamide] | 41100 nM | 82 nM | 744 nM
COc1ccc(-c2[nH]c3ccc(-c4cccc(C(=O)NCC(N)=O)c4)cc3c2CC(F)(F)F)cc1OC [Example 28, N-(2-amino-2-oxoethyl)-3-(2-(3,4-dimethoxyphenyl)-3-(2,2,2-trifluoroethyl)-1H-indol-5-yl)benzamide] | 32600 nM | 94 nM | 587 nM
COc1ccc(-c2[nH]c3ccc(-c4cccc(C(=O)NCCN5CCOCC5)c4)cc3c2CC(F)(F)F)cc1OC [Example 29, 3-(2-(3,4-dimethoxyphenyl)-3-(2,2,2-trifluoroethyl)-1H-indol-5-yl)-N-(2-morpholinoethyl)benzamide] | 7290 nM | 55 nM | 416 nM
COc1ccc(-c2[nH]c3ccc(-c4cccc(C(=O)N5CCN(CC(=O)NC(C)C)CC5)c4)cc3c2CC(F)(F)F)cc1OC [Example 30, 2-(4-(3-(2-(3,4-dimethoxyphenyl)-3-(2,2,2-trifluoroethyl)-1H-indol-5-yl)benzoyl)piperazin-1-yl)-N-isopropylacetamide] | 14300 nM | 165 nM | 1990 nM
COc1ccc(-c2[nH]c3ccc(-c4cccc(C(=O)N5CCC(O)CC5)c4)cc3c2CC(F)(F)F)cc1OC [Example 31, (3-(2-(3,4-dimethoxyphenyl)-3-(2,2,2-trifluoroethyl)-1H-indol-5-yl)phenyl)(4-hydroxypiperidin-1-yl)methanone] | 25800 nM | 307 nM | 895 nM
COc1ccc(-c2[nH]c3ccc(-c4cccc(C(=O)N5CCCC5C)c4)cc3c2CC(F)(F)F)cc1OC (stereo not drawn) [Example 32, (3-(2-(3,4-dimethoxyphenyl)-3-(2,2,2-trifluoroethyl)-1H-indol-5-yl)phenyl)(2-methylpyrrolidin-1-yl)methanone] | > 50000 nM | 1110 nM | 2620 nM
COc1ccc(-c2[nH]c3ccc(-c4cccc(C(=O)N5CC[C@@H](O)C5)c4)cc3c2CC(F)(F)F)cc1OC [Example 34, (R)-(3-(2-(3,4-dimethoxyphenyl)-3-(2,2,2-trifluoroethyl)-1H-indol-5-yl)phenyl)(3-hydroxypyrrolidin-1-yl)methanone] | 14700 nM | 199 nM | 776 nM
COc1ccc(-c2[nH]c3ccc(-c4cccc(C(=O)N(C)CCc5ccccn5)c4)cc3c2CC(F)(F)F)cc1OC [Example 35, 3-(2-(3,4-dimethoxyphenyl)-3-(2,2,2-trifluoroethyl)-1H-indol-5-yl)-N-methyl-N-(2-(pyridin-2-yl)ethyl)benzamide] | > 50000 nM | 71 nM | 974 nM
COc1ccc(-c2[nH]c3ccc(-c4cccc(C(=O)N5CCN(c6ccncc6)CC5)c4)cc3c2CC(F)(F)F)cc1OC [Example 36, (3-(2-(3,4-dimethoxyphenyl)-3-(2,2,2-trifluoroethyl)-1H-indol-5-yl)phenyl)(4-(pyridin-4-yl)piperazin-1-yl)methanone] | 1800 nM | 102 nM | 287 nM
